This passage reports IC50 and AC50 results from US11633415B2, “Compounds and methods useful for treating or preventing cancers” (priority 2017, dated 2023).

SMILES strings stand for the structures.

For one experiment, the target named is CSNK1A1 (Homo sapiens (Human), UniProt P48729). Briefly: Kinase enzymatic IC50 (Carna Biosciences mobility shift assay). Conditions: Table 1, CSNK1A1 inhibitors; read-out: IC50. The class given is biochemical. The protocol: (§1) Enzymatic assays were performed using a mobility shift assay on the LabChip system. Purified kinase protein was incubated with ATP, substrate, and assay buffer (20 mM Hepes—pH 7.5; 5 mM MgCl2, and 0.01% Triton X-100). The assay reaction was initiated with 5 μM ATP and with each compound present. Compounds were tested at the KM,ATP for the protein target (GST-tagged full-length human CK1α, available from Carna Biosciences, Japan) or over a range of ATP concentrations between 5 μM and 9 μM. […] AC50 values were determined using phosphorylated and unphosphorylated substrates.
Chain of CSNK1A1 (P48729 whole entry): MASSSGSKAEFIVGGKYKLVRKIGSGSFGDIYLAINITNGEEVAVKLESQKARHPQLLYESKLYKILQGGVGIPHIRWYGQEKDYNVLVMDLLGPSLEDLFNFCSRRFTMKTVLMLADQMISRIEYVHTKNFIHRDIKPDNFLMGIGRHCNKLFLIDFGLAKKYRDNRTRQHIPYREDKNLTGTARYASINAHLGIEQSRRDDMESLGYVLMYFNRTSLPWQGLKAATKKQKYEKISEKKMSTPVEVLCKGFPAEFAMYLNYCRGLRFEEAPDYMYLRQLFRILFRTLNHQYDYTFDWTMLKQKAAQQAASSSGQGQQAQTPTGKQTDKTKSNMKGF
A word on the IC50: it is the concentration needed to halve the response being measured. With `CCC(CC)COC(=O)C(C#N)c1nc2ccccc2nc1N1CCC(N)CC1` (stereo not drawn) [2-ethylbutyl 2-cyano-2-(3-(4-(amino)piperidin-1-yl)quinoxalin-2-yl)acetate], the IC50 turned out to be 3.32 µM. For the compound `CCC(CC)COC(=O)C(C#N)c1nc2ccccc2nc1N1CCN(C)CC1` (stereo not drawn) [2-ethylbutyl 2-cyano-2-(3-(4-(methylpiperazin-1-yl)quinoxalin-2-yl)acetate], the IC50 stood at 0.399 µM.

As for `CN1CCN(c2nc3ccccc3nc2C(C#N)C(=O)OC2CCCCC2)CC1` (stereo not drawn) [compound 4, cyclohexyl 2-cyano-2-(3-(4-methylpiperazin-1-yl)quinoxalin-2-yl)acetate], the IC50 was determined as 3.18 µM. `N#CC(C(=O)OCc1cccc(F)c1)c1nc2ccccc2nc1N1CCNCC1` (stereo not drawn) [3-fluorobenzyl 2-cyano-2-(3-(4-(piperazin-1-yl)quinoxalin-2-yl)acetate]: the half-inhibitory concentration (IC50) came out at 0.268 µM.

On to `CNC1CCN(c2nc3ccccc3nc2C(C#N)C(=O)OCc2ccccc2)CC1` (stereo not drawn) [benzyl 2-cyano-2-(3-(4-(methylamino)piperidin-1-yl)quinoxalin-2-yl)acetate], for which the half-maximal inhibitory concentration (IC50) was 4.39 µM. On the same count and under the same terms, in the case of `N#CC(C(=O)OCc1ccccc1)c1nc2ccccc2nc1N1CCC(N)CC1` (stereo not drawn) [benzyl 2-(3-(4-aminopiperidin-1-yl)quinoxalin-2-yl)-2-cyanoacetate] it was 1.89 µM; in that of `N#CC(C(=O)OCc1ccccc1F)c1nc2ccccc2nc1N1CCNCC1` (stereo not drawn) [2-fluorobenzyl 2-cyano-2-(3-(4-(piperazin-1-yl)quinoxalin-2-yl)acetate], 1.88 µM.

Consider `CN1CCN(c2nc3ccccc3nc2C(C#N)C(=O)OCC(C)(C)C)CC1` (stereo not drawn) [2,2 dimethyl propyl 2-cyano-2-(3-(4-(methylpiperazin-1-yl)quinoxalin-2-yl)acetate], for which the IC50 was determined as 0.715 µM. On the same count and under the same terms, in the case of `Nc1ncnc2c1c(COc1cccc(Cl)c1)nn2C1CCOCC1` [PF4800567, 3-(3-chloro-phenoxymethyl)-1-(tetrahydro-pyran-4-yl)-1H-pyrazolo[3,4-d]pyrimidin-4-ylamine, reference compound] it was 0.857 µM.

As to `CCC(CC)COC(=O)C(C#N)c1nc2ccccc2nc1N1CCNCC1` (stereo not drawn) [2-ethylbutyl 2-cyano-2-(3-(4-(piperazin-1-yl)quinoxalin-2-yl)acetate], the IC50 turned out to be 0.094 µM.

In the case of `N#CC(C(=O)OCc1cccc(N)c1)c1nc2ccccc2nc1N1CCNCC1` (stereo not drawn) [3-aminobenzyl 2-cyano-2-(3-(4-(piperazin-1-yl)quinoxalin-2-yl)acetate], the IC50 is 4.13 µM. The same measure, in the same setting: in the case of `CCC(CC)COC(=O)C(C#N)c1nc2ccccc2nc1N1CCC(CN)CC1` (stereo not drawn) [2-ethylbutyl 2-cyano-2-(3-(4-(aminomethyl)piperidin-1-yl)quinoxalin-2-yl)acetate] it was 1.75 µM. Consider `CCC(CC)COC(=O)C(C#N)c1nc2ccccc2nc1N1CCN(CC)CC1` (stereo not drawn) [compound 3, 2-ethylbutyl 2-cyano-2-(3-(4-ethylpiperazin-1-yl)quinoxalin-2-yl)acetate], for which the IC50 is 5 µM. In the case of `CN1CCN(c2nc3ccccc3nc2C(C#N)C(=O)OCc2ccc(F)cc2)CC1` (stereo not drawn) [4-fluorobenzyl 2-cyano-2-(3-(4-(methylpiperazin-1-yl)quinoxalin-2-yl)acetate], the IC50 came out at 2.89 µM. Same read-out and setting: in the case of `N#CC(C(=O)OCc1ccc(F)cc1)c1nc2ccccc2nc1N1CCNCC1` (stereo not drawn) [4-fluorobenzyl 2-cyano-2-(3-(4-(piperazin-1-yl)quinoxalin-2-yl)acetate] it was 1.29 µM; in that of `CC(C)(C)COC(=O)C(C#N)c1nc2ccccc2nc1N1CCNCC1` (stereo not drawn) [2,2 dimethyl propyl 2-cyano-2-(3-(4-(piperazin-1-yl)quinoxalin-2-yl)acetate], 0.21 µM.

Staying with this experiment, now noted: known inhibitors, background text (rounded Table 1 values); read-out: IC50 against CSNK1A1.
For `Nc1ncnc2c1c(COc1cccc(Cl)c1)nn2C1CCOCC1` [PF4800567, 3-(3-chloro-phenoxymethyl)-1-(tetrahydro-pyran-4-yl)-1H-pyrazolo[3,4-d]pyrimidin-4-ylamine, reference compound], the IC50 is 0.86 µM.

For the next experiment, the target named is GST-tagged full-length human CK1α (Homo sapiens (Human), UniProt P48729). Briefly: Kinase enzymatic assay, mobility shift on LabChip system (AC50). The settings on record: mean AC50; 5 μM ATP; 1 μM Profiler Pro FL-Peptide 16 substrate. The experiment is classed as biochemical. The protocol: as §1
Chain of GST-tagged full-length human CK1α (P48729 whole entry): as above
The term AC50 denotes the concentration at which the activity in the assay is half-maximal. Take `N#CC(C(=O)OCc1ccc(F)cc1)c1nc2ccccc2nc1N1CCNCC1` (stereo not drawn) [drawing 129]: the AC50 came to 2.73 µM. As for `CCC(CC)COC(=O)C(C#N)c1nc2ccccc2nc1N1CCNC(c2ccccc2)C1` (stereo not drawn), the AC50 was 2.22 µM. On the same count and under the same terms, the result for `N#C/C(C(=O)OCC1CCCCC1)=C1/Nc2ccc(-c3ccccc3O)cc2N=C1N1CCNCC1` reads 0.043 µM; that for `CCC(CC)COC(=O)C(C#N)c1nc2ccccc2nc1N1CCNC(C(C)C)C1` (stereo not drawn), 1.39 µM. As for `CCC(CC)COC(=O)C(C#N)c1nc2ccccc2nc1N1CCNCC1` (stereo not drawn) [drawing 149], the AC50 was determined as 1.94 µM. The same measure, in the same setting: in the case of `N#CC(C(=O)OCc1cccnc1)c1nc2ccccc2nc1N1CCNCC1` (stereo not drawn) it was 0.95 µM; in that of `CCC(CC)COC(=O)C(C#N)c1nc2ccccc2nc1N1CCN[C@@H](C)C1` (stereo partly drawn), 1.22 µM.

`CCC(CC)COC(=O)C(C#N)c1nc2ccccc2nc1N1CCC(CN)CC1` (stereo not drawn) [drawing 124]: the AC50 turned out to be 2.6 µM. Take `N#C/C(C(=O)OCC1CCCCC1)=C1/NC=NC=C1N1CCNCC1`: the AC50 stood at 0.467 µM. In the case of `N#C/C(C(=O)OCC1CCCCC1)=C1/Nc2ccc([N+](=O)[O-])cc2N=C1N1CCNCC1`, the AC50 was found to be 0.158 µM. Still for that read-out and setting: in the case of `CC(C)(C)COC(=O)C(C#N)c1nc2ccccc2nc1N1CCNCC1` (stereo not drawn) [drawing 115] it was 0.151 µM; in that of `N#CC(C(=O)OCc1ccccc1)c1nc2ccccc2nc1N1CCC(N)CC1` (stereo not drawn) [drawing 131], 1.82 µM.

Regarding `N#C/C(C(=O)CCC1CCCCC1)=C1/Nc2ccccc2N=C1N1CCNCC1`, the concentration at half-maximal activity (AC50) turned out to be 3.15 µM. On the same count and under the same terms, in the case of `N#C/C(C(=O)OCC1CCCCC1)=C1/Nc2c(F)cccc2N=C1N1CCNCC1` it was 1.14 µM; in that of `N#CC(C(=O)OCc1ccccc1F)c1nc2ccccc2nc1N1CCNCC1` (stereo not drawn) [drawing 123], 1.51 µM. Still for that read-out and setting: the result for `N#C/C(C(=O)NCc1ccccc1)=C1/Nc2ccccc2N=C1N1CCNCC1` reads 1.92 µM. The same measure, in the same setting: in the case of `N#CC(C(=O)OCC1CCCCC1)c1nccnc1N1CCNCC1` (stereo not drawn) it was 0.304 µM; in that of `CCC(CC)COC(=O)C(C#N)c1nc2ccccc2nc1NC1CCNCC1` (stereo not drawn), 1.33 µM. Consider `N#CC(C(=O)OCc1ccc2ccccc2c1)c1nc2ccccc2nc1N1CCNCC1` (stereo not drawn), for which the AC50 came to 3.87 µM. Same read-out and setting: in the case of `N#C/C(C(=O)OCC1CCCCC1)=C1/Nc2ccc(F)cc2N=C1N1CCNCC1` it was 0.065 µM; in that of `N#CC(C(=O)OCc1cccc(N)c1)c1nc2ccccc2nc1N1CCNCC1` (stereo not drawn) [drawing 141], 3.8 µM.

Consider `CCC(CC)COC(=O)C(C#N)c1nc2ccccc2nc1N1CCC(N)CC1` (stereo not drawn) [drawing 126], for which the AC50 stood at 4.22 µM. For `CN1CCN(c2nc3ccccc3nc2C(C#N)C(=O)OCC(C)(C)C)CC1` (stereo not drawn) [drawing 117], the AC50 came to 0.822 µM. On to `N#CC(C(=O)OCc1ccncc1)c1nc2ccccc2nc1N1CCNCC1` (stereo not drawn), for which the AC50 was found to be 0.468 µM.

For the compound `CCC(CC)COC(=O)C(C#N)c1nc2ccccc2nc1N1CCNC(=O)C1` (stereo not drawn), the AC50 turned out to be 1.74 µM. On the same count and under the same terms, in the case of `CNC1CCN(c2nc3ccccc3nc2C(C#N)C(=O)OCc2ccccc2)CC1` (stereo not drawn) [drawing 147] it was 3.65 µM; in that of `CCC(CC)COC(=O)C(C#N)c1nc2ccccc2nc1N1CCN[C@H](C)C1` (stereo partly drawn), 0.333 µM; in that of `CCC(CC)COC(=O)C(C#N)c1nc2ccccc2nc1N1CCNC(C(=O)OC)C1` (stereo not drawn), 3.15 µM. In the case of `N#C/C(C(=O)OCC1CCCCC1)=C1/Nc2ccccc2C=C1N1CCNCC1`, the AC50 came to 1.33 µM. Same read-out and setting: the result for `N#C/C(C(=O)OCC1CCCCC1)=C1/Nc2ccc(-c3ccccc3)cc2N=C1N1CCNCC1` reads 0.27 µM; that for `CC(C)COC(=O)C(C#N)c1nc2ccccc2nc1N1CCC(C(N)=O)CC1` (stereo not drawn), 4.64 µM; that for `CCC(CC)COC(=O)C(C#N)c1nc2ccccc2nc1N1CCNC(Cc2ccccc2)C1` (stereo not drawn), 1.27 µM. The same measure, in the same setting: in the case of `CCC(CC)COC(=O)C(C#N)c1nc2ccccc2nc1N1CCNC(CC)C1` (stereo not drawn) it was 0.958 µM; in that of `N#CC(C(=O)OCC1CCCCCC1)c1nc2ccccc2nc1N1CCNCC1` (stereo not drawn), 0.355 µM. In the case of `N#C/C(C(=O)OCC1CCCCC1)=C1/Nc2cccc(F)c2N=C1N1CCNCC1`, the AC50 amounted to 0.405 µM. Still for that read-out and setting: in the case of `N#CC(C(=O)OCc1cccc(F)c1)c1nc2ccccc2nc1N1CCNCC1` (stereo not drawn) [drawing 134] it was 0.353 µM; in that of `CCC(CC)COC(=O)C(C#N)c1nc2ccccc2nc1N1CCNC(CO)C1` (stereo not drawn), 0.517 µM. On the same count and under the same terms, in the case of `CCC(CC)COC(=O)C(C#N)c1nc2ccccc2nc1N1CCN(C)CC1` (stereo not drawn) [drawing 142] it was 1.34 µM. Same read-out and setting: the result for `CN1CCN(c2nc3ccccc3nc2C(C#N)C(=O)OCc2ccc(F)cc2)CC1` (stereo not drawn) [drawing 146] reads 2.04 µM; that for `CCC(CC)COC(=O)C(C#N)c1nc2ccccc2nc1N1CCNC(C)C1` (stereo not drawn), 0.434 µM; that for `N#CC(C(=O)OCC1CCCC1)c1nc2ccccc2nc1N1CCNCC1` (stereo not drawn), 0.138 µM. For the compound `N#CC(C(=O)NCC1CCCCC1)c1nc2ccccc2nc1N1CCNCC1` (stereo not drawn), the AC50 amounted to 1.76 µM. On the same count and under the same terms, in the case of `CN1CCN(c2nc3ccccc3nc2C(C#N)C(=O)OCC2CCCCC2)CC1` (stereo not drawn) it was 0.029 µM; in that of `N#C/C(C(=O)OCC1CCCCC1)=C1\C=C(N2CCNCC2)N=CN1`, 3.78 µM.

Another experiment deals with colorectal carcinoma cell line HT29. In words: Cell viability assay, HT29. The class given is cell-based. Conditions: Homo sapiens, HT-29; HT29, 72 hours from plating (48 hours from compound administration). As for the experimental part:
Cell viability assays were conducted against colorectal carcinoma cell line HT29. Cells were plated in wells and at 24 hours after plating, compounds were added to determine their effect on cell viability at various dosages. After 48 hours from compound administration, the cell viability was determined and the IC50 values were calculated. […] FIG. 4B illustrates the results of another cell viability measurement and IC50 value for Compound 1 assessed by ATP abundance on HT29 at 5 days.
Compound `N#C/C(C(=O)OCC1CCCCC1)=C1/Nc2ccc(-c3ccccc3O)cc2N=C1N1CCNCC1` showed an IC50 of 0.837 µM. On to `CCN1CCN(c2nc3ccccc3nc2C(C#N)C(=O)OC2CCCCC2)CC1` (stereo not drawn) [drawing 166], for which half-maximal inhibition (IC50) required 17.4 µM. Same read-out and setting: in the case of `N#C/C(C(=O)OCC1CCCCC1)=C1/Nc2cccc(N)c2N=C1N1CCNCC1` it was 5.46 µM; in that of `N#C/C(C(=O)OCC1CCCCC1)=C1/Nc2cc(N)ccc2N=C1N1CCNCC1`, 3.71 µM; in that of `CN1CCN(c2nc3ccccc3nc2C(C#N)C(=O)OCc2ccccc2)CC1` (stereo not drawn), 56.8 µM.
